From US6756359B2, “C12 modified erythromycin macrolides and ketolides having antibacterial activity” (Chiron Corporation, priority 2001, dated 2004)
Values after ≈ are worked out from the molar mass of the structure shown.

What was measured:
Assay in all cases: Antibacterial activity in vitro, MIC by broth microdilution
[1] = tested on: S. pneumoniae Stpn_297-749 Pen R; assay type: cell-based, Streptococcus pneumoniae; details: Table 5, Strain ID G: S. pneumoniae Stpn_297-749
Description: (§1) Representative compounds of the present invention were assayed in vitro for antibacterial activity against the bacterial isolates listed in Table 1 as follows:
(§2) The bacterial isolates listed in Table 1 were cultivated from −70° C. frozen stocks by two consecutive overnight passages (P1, P2) at 35° C. on 5% blood agar (Remel, Lenexa, Kans.). Chocolate agar (Remel) is used for Haemophilus influenzae. H. influenzae and Streptococcus pneumoniae are incubated in 5-10% CO2.
(§3) To determine the amount of solvent to be used to give the desired final concentration, the formula “weight obtained in mg/final concentration in mg/mL” will be used. It will give the amount of solvent in mL needed to be added to give the desired concentration. For example, if 2.5 mg/mL is the desired concentration and the weight of compound is 13.7 mg, then the amount of solvent to be added is 3.94 mL (13.7 mg/2.5 mg/mL=3.94 mLs). Methanol is used as the solvent to dissolve the test compounds. Further dilution of stock is done in sterile, deioinzed water. Drug stocks are kept frozen at −70° C., protected from light.
(§4) MICs are determined by the broth microdilution method in accordance with the NCCLS guidelines. In brief, organism suspensions are adjusted to a 0.5 McFarland standard to yield a final inoculum between 3×10^5 and 7×10^5 CFU/mL. Drug dilutions and inocula are made in sterile, cation adjusted Mueller-Hinton Broth (CAMHB) (Remel) for all but S. pneumoniae [CAMHB with 2-5% lysed horse blood (Remel)] and H. influenzae [Haemophilus Test Medium (Remel)]. An inoculum volume of 100 μl is added to wells containing 100 μl of broth with 2-fold serial dilutions of drug. All inoculated microdilution trays are incubated in ambient air at 35° C. for 18-24 hours, except for S. pneumoniae, and H. influenzae (both at 5-10% CO2).
(§5) Following appropriate incubation, the MIC is determined and the MIC is defined as the lowest concentration of the drug that prevented visible growth.

[2] = tested on: S. pneumoniae Stpn_Erm 6849; assay type: cell-based, Streptococcus pneumoniae; details: Table 5, Strain ID I: S. pneumoniae Stpn_Erm 6849; unit assumed
Description: as §1, §2, §3, §4, §5

[3] = tested on: S. pneumoniae Stpn_Mef 5654; assay type: cell-based, Streptococcus pneumoniae; details: Table 5, Strain ID K: S. pneumoniae Stpn_Mef 5654; unit assumed
Description: as §1, §2, §3, §4, §5

[4] = tested on: S. pneumoniae Stpn_Erm S 4297; assay type: cell-based, Streptococcus pneumoniae; details: Table 5, Strain ID J: S. pneumoniae Stpn_Erm S 4297
Description: as §1, §2, §3, §4, §5

[5] = tested on: S. pneumoniae Stpn_280-962 Pen S; assay type: cell-based, Streptococcus pneumoniae; details: Table 5, Strain ID H: S. pneumoniae Stpn_280-962
Description: as §1, §2, §3, §4, §5

[6] = tested on: S. pneumoniae Stpn_Mef S 3427; assay type: cell-based, Streptococcus pneumoniae; details: Table 5, Strain ID L: S. pneumoniae Stpn_Mef S 3427; unit assumed
Description: as §1, §2, §3, §4, §5

S. pneumoniae Stpn_49619 = assay type: cell-based, Streptococcus pneumoniae; details: Table 5, Strain ID F: S. pneumoniae Stpn_49619
Description: as §1, §2, §3, §4, §5

[7] = tested on: S. epidermidis Step_f50654 Pen S; assay type: cell-based; details: Table 5, Strain ID C: S. epidermidis Step_f50654; unit assumed
Description: as §1, §2, §3, §4, §5

E. faecalis Enfa_29212 = assay type: cell-based; details: Table 5, Strain ID D: E. faecalis Enfa_29212; unit assumed
Description: as §1, §2, §3, §4, §5

S. pyogenes Stpy_8668 = assay type: cell-based; details: Table 5, Strain ID E: S. pyogenes Stpy_8668
Description: as §1, §2, §3, §4, §5

[8] = tested on: S. epidermidis Step_14990; assay type: cell-based; details: Table 5, Strain ID B: S. epidermidis Step_14990; unit assumed
Description: as §1, §2, §3, §4, §5

S. aureus Stau_29213 = assay type: cell-based; details: Table 5, Strain ID A: S. aureus Stau_29213; unit assumed
Description: as §1, §2, §3, §4, §5

H. influenzae Hain_49247 = assay type: cell-based, Haemophilus influenzae; details: Table 5, Strain ID M: H. influenzae Hain_49247; unit assumed
Description: as §1, §2, §3, §4, §5

| MIC [1] | MIC [2] | MIC [3] | MIC ([4]; unit assumed) | MIC [5] | MIC [6] | MIC (S. pneumoniae Stpn_49619) | MIC [7] | MIC (E. faecalis Enfa_29212) | MIC (S. pyogenes Stpy_8668) | MIC [8] | MIC (S. aureus Stau_29213) | MIC (H. influenzae Hain_49247) | MIC [4] | MIC ([1]; unit assumed) | Structure (SMILES) |
| --- | --- | --- | --- | --- | --- | --- | --- | --- | --- | --- | --- | --- | --- | --- | --- |
| ≦0.05 | 0.2 µg/mL (≈ 0.25 µM) | 0.78 µg/mL (≈ 0.975 µM) | 0.1 µg/mL (≈ 0.125 µM) | ≦0.05 | 0.2 µg/mL (≈ 0.25 µM) | ≦0.05 | 0.4 µg/mL (≈ 0.5 µM) | 0.2 µg/mL (≈ 0.25 µM) | ≦0.05 | 0.4 µg/mL (≈ 0.5 µM) | 0.4 µg/mL (≈ 0.5 µM) | 3.13 µg/mL (≈ 3.91 µM) |  |  | CC[C@H]1OC(=O)[C@H](C)C(=O)[C@H](C)[C@@H](OC2O[C@H](C)C[C@H](N(C)C)[C@H]2O)[C@@](C)(OC)C[C@@H](C)C(=O)[C@H](C)[C@H]2N(CCCCn3cnc4ncccc43)C(=O)O[C@]12CC (stereo partly drawn) [Example 22, (3aS,4R,7R,9R,10R,11S,13R,15R,15aR)-3a,4-diethyl-1-[4-(1H-imidazo[4,5-b]pyridin-1-yl)butyl]-11-methoxy-7,9,11,13,15-pentamethyl-2,6,8,14-tetraoxotetradecahydro-2H-oxacyclotetradecino[4,3-d][1,3]oxazol-10-yl 3,4,6-trideoxy-3-(dimethylamino)-D-xylo-hexopyranoside] |
| ≦0.05 | 0.78 µg/mL (≈ 1.01 µM) | 0.4 µg/mL (≈ 0.516 µM) | 0.2 µg/mL (≈ 0.258 µM) | ≦0.05 | 0.1 µg/mL (≈ 0.129 µM) | ≦0.05 | 0.78 µg/mL (≈ 1.01 µM) | 0.2 µg/mL (≈ 0.258 µM) | ≦0.05 | 0.78 µg/mL (≈ 1.01 µM) | 1.56 µg/mL (≈ 2.01 µM) | 6.25 µg/mL (≈ 8.06 µM) |  |  | CC[C@H]1OC(=O)[C@H](C)C(=O)[C@H](C)[C@@H](OC2O[C@H](C)C[C@H](N(C)C)[C@H]2O)[C@@](C)(OC)C[C@@H](C)C(=O)[C@H](C)[C@H]2N(CCN(C)Cc3cccnc3)C(=O)O[C@]12CC (stereo partly drawn) [Example 23, (3aS,4R,7R,9R,10R,11S,13R,15R,15aR)-3a,4-diethyl-11-methoxy-7,9,11,13,15-pentamethyl-1-{2-[methyl(pyridin-3-ylmethyl)amino]ethyl}-2,6,8,14-tetraoxotetradecahydro-2H-oxacyclotetradecino[4,3-d][1,3]oxazol-10-yl 3,4,6-trideoxy-3-(dimethylamino)-D-xylo-hexopyranoside] |
| ≦0.05 | 0.1 µg/mL (≈ 0.121 µM) | 0.4 µg/mL (≈ 0.484 µM) | 0.1 µg/mL (≈ 0.121 µM) | ≦0.05 | 0.1 µg/mL (≈ 0.121 µM) | ≦0.05 | 0.2 µg/mL (≈ 0.242 µM) | 0.1 µg/mL (≈ 0.121 µM) | ≦0.05 | 0.2 µg/mL (≈ 0.242 µM) | 0.4 µg/mL (≈ 0.484 µM) | 3.13 µg/mL (≈ 3.78 µM) |  |  | CC[C@H]1OC(=O)[C@H](C)C(=O)[C@H](C)[C@@H](OC2O[C@H](C)C[C@H](N(C)C)[C@H]2O)[C@@](C)(OC)C[C@@H](C)C(=O)[C@H](C)[C@H]2N(CCCCn3cnc(-c4cncnc4)c3)C(=O)O[C@]12CC (stereo partly drawn) [Example 25, (3aS,4R,7R,9R,10R,11S,13R,15R,15aR)-3a,4-diethyl-11-methoxy-7,9,11,13,15-pentamethyl-2,6,8,14-tetraoxo-1-[4-(4-pyrimidin-5-yl-1H-imidazol-1-yl)butyl]tetradecahydro-2H-oxacyclotetradecino[4,3-d][1,3]oxazol-10-yl 3,4,6-trideoxy-3-(dimethylamino)-D-xylo-hexopyranoside] |
| ≦0.05 | 0.2 µg/mL (≈ 0.242 µM) | 0.4 µg/mL (≈ 0.484 µM) |  | ≦0.05 | 0.1 µg/mL (≈ 0.121 µM) | ≦0.05 | 0.2 µg/mL (≈ 0.242 µM) | 0.2 µg/mL (≈ 0.242 µM) | ≦0.05 | 0.2 µg/mL (≈ 0.242 µM) | 0.2 µg/mL (≈ 0.242 µM) | 3.13 µg/mL (≈ 3.78 µM) | ≦0.05 |  | CC[C@H]1OC(=O)[C@H](C)C(=O)[C@H](C)[C@@H](OC2O[C@H](C)C[C@H](N(C)C)[C@H]2O)[C@@](C)(OC)C[C@@H](C)C(=O)[C@H](C)[C@H]2N(CCCCn3cnc(-c4cnccn4)c3)C(=O)O[C@]12CC (stereo partly drawn) [Example 26, (3aS,4R,7R,9R,10R,11S,13R,15R,15aR)-3a,4-diethyl-11-methoxy-7,9,11,13,15-pentamethyl-2,6,8,14-tetraoxo-1-[4-(4-pyrazin-2-yl-1H-imidazol-1-yl)butyl]tetradecahydro-2H-oxacyclotetradecino [4,3-d][1,3]oxazol-10-yl 3,4,6-trideoxy-3-(dimethylamino)-D-xylo-hexopyranoside] |
|  | 3.13 µg/mL (≈ 3.83 µM) | 0.4 µg/mL (≈ 0.489 µM) | 0.1 µg/mL (≈ 0.122 µM) | ≦0.025 | 0.1 µg/mL (≈ 0.122 µM) | ≦0.025 | 0.1 µg/mL (≈ 0.122 µM) | 0.05 µg/mL (≈ 0.0611 µM) | ≦0.025 | 0.1 µg/mL (≈ 0.122 µM) | 0.1 µg/mL (≈ 0.122 µM) | 1.56 µg/mL (≈ 1.91 µM) |  | 0.025 µg/mL (≈ 0.0306 µM) | CC[C@H]1OC(=O)[C@@](C)(F)C(=O)[C@H](C)[C@@H](OC2O[C@H](C)C[C@H](N(C)C)[C@H]2O)[C@@](C)(OC)C[C@@H](C)C(=O)[C@H](C)[C@H]2N(CCCCn3cnc4ncccc43)C(=O)O[C@]12CC (stereo partly drawn) [Example 27, (3aS,4R,7S,9R,10R,11S,13R,15R,15aR)-3a,4-diethyl-7-fluoro-1-[4-(1H-imidazo[4,5-b]pyridin-1-yl)butyl]-11-methoxy-7,9,11,13,15-pentamethyl-2,6,8,14-tetra-oxotetradecahydro-2H-oxacyclotetradecino[4,3-d][1,3]oxazol-10-yl 3,4,6-trideoxy-3-(dimethylamino)-D-xylo-hexopyranoside] |

| Structure (SMILES) | MIC [1] | MIC [2] | MIC [3] | MIC ([4]; unit assumed) | MIC [5] | MIC [6] | MIC (S. pneumoniae Stpn_49619) | MIC [7] | MIC (E. faecalis Enfa_29212) | MIC (S. pyogenes Stpy_8668) | MIC [8] | MIC (S. aureus Stau_29213) | MIC (H. influenzae Hain_49247) | MIC [4] | MIC ([1]; unit assumed) |
| --- | --- | --- | --- | --- | --- | --- | --- | --- | --- | --- | --- | --- | --- | --- | --- |
| CC[C@H]1OC(=O)[C@H](C)C(=O)[C@H](C)[C@@H](OC2O[C@H](C)C[C@H](N(C)C)[C@H]2O)[C@@](C)(OC)C[C@@H](C)C(=O)[C@H](C)[C@H]2N(CCCCn3cnc(-c4cccnc4)c3C)C(=O)O[C@]12CC (stereo partly drawn) [Example 21, (3aS,4R,7R,9R,10R,11S,13R,15R,15aR)-3a,4-diethyl-11-methoxy-7,9,11,13,15-pentamethyl-1-[4-(5-methyl-4-pyridin-3-yl-1H-imidazol-1-yl)butyl]-2,6,8,14-tetraoxotetradecahydro-2H-oxacyclotetradecino[4,3-d][1,3]oxazol-10-yl 3,4,6-trideoxy-3-(dimethylamino)-D-xylo-hexopyranoside] | ≦0.05 | 0.2 µg/mL (≈ 0.238 µM) | 0.78 µg/mL (≈ 0.928 µM) | 0.1 µg/mL (≈ 0.119 µM) | ≦0.05 | 0.1 µg/mL (≈ 0.119 µM) | ≦0.05 | 0.4 µg/mL (≈ 0.476 µM) | 0.1 µg/mL (≈ 0.119 µM) | ≦0.05 | 0.4 µg/mL (≈ 0.476 µM) | 0.4 µg/mL (≈ 0.476 µM) | 12.5 µg/mL (≈ 14.9 µM) |  |  |
| CC[C@H]1OC(=O)[C@H](C)C(=O)[C@H](C)[C@@H](OC2O[C@H](C)C[C@H](N(C)C)[C@H]2O)[C@@](C)(OC)C[C@@H](C)C(=O)[C@H](C)[C@H]2N(CCCCn3cnc(-c4ccncc4)c3)C(=O)O[C@]12CC (stereo partly drawn) [Example 28, (3aS,4R,7R,9R,10R,11S,13R,15R,15aR)-3a,4-diethyl-11-methoxy-7,9,11,13,15-pentamethyl-2,6,8,14-tetraoxo-1-[4-(4-pyridin-4-yl-1H-imidazol-1-yl)butyl]tetradecahydro-2H-oxacyclotetradecino[4,3-d][1,3]oxazol-10-yl 3,4,6-trideoxy-3-(dimethylamino)-D-xylo-hexopyranoside] | ≦0.05 | > 50 µg/mL | 0.78 µg/mL (≈ 0.944 µM) | 0.4 µg/mL (≈ 0.484 µM) | ≦0.05 | 0.2 µg/mL (≈ 0.242 µM) | ≦0.05 | 0.4 µg/mL (≈ 0.484 µM) | 0.1 µg/mL (≈ 0.121 µM) | ≦0.05 | 0.4 µg/mL (≈ 0.484 µM) | 0.4 µg/mL (≈ 0.484 µM) | 3.13 µg/mL (≈ 3.79 µM) |  |  |
